From US20070087988A1, “Hematopoietic progenitor kinase 1 for modulation of an immune response” (New York University, priority 2005, published 2007)
“Also recorded” adds a separate entry of the source.

Tested on: HPK1
Experiment: HPK1 immune complex in vitro kinase (IVK) assay, endogenous HPK1 from treated Jurkat cells
Type: cell-based, human
Conditions: Lck (JCaM1), ZAP-70 (p116), Lat (ANJ-3), SLP-76 (J14) deficient lines, 10 pM PGE2

CCCCC[C@H](O)/C=C/[C@H]1[C@H](O)CC(=O)[C@@H]1C/C=C\CCCC(=O)O [PGE2, prostaglandin E2]
HPK1 kinase activity upon PGE2 stimulation in signaling-mutant Jurkat lines: did not interfere with the ability of HPK1 to respond; also recorded: all Jurkat cell lines could activate HPK1 kinase activity
